Test results taken from patent US4101552A, “Novel lysergic acid amides and process for preparing same” (Richter Gedeon Vegyeszeti Gyar Rt., priority 1975, dated 1978).

Columns and labels:
serotonin oedema = assay: Antiserotonin effect in vivo: rat-sole oedema (serotonin oedema blocking)
[1] = Acute toxicity: LD50 on mice after 24 hours; details: mouse, in vivo
Protocol: Acute toxicity: LD50 on mice after 24 hours.
Description of the method: […], J.T.jr. and
WILCOXON, F.J., Pharmacol. exp.

reserpine hypothermia = assay: Antidepressant test: antagonization of reserpine hypothermia; type: in vivo; details: 30 mg/kg, intraperitoneally
Protocol: Antidepressant effect (Δt, ° C) and acute toxicity
Antidepressant test: antagonization of reserpine hypothermia
Dose: 30 mg/kg, intraperitoneally
Δt, ° C: change in body temperature compared to that of
Description of the method: ASKEW, B.M., Life Sci. 10, 725

isolated rat uterus = assay: Antiserotonin effect in vitro on isolated rat uterus; details: read-out: In vitro ED50 (antiserotonin effect)
Source text: It is characteristic of the compound that its effect is well measurable even after oral administration, indicating its ready peroral absorption.
In vitro: on isolated rat uterus
Description of the method; GADDUM, J. H. and HAMMED, L. A.: […]

blood pressure of cats = assay: Antihypertensive effect: blood pressure of anaesthetized cats; type: in vivo, cat
Protocol: Antihypertensive effect
Method: the blood pressure of cats anaesthetized with
intraperitoneally administered 30 mg/kg of pento-
barbital was measured in the left femoral artery
by means of the Statham P 23 db manometer and re-
corded on Hellige polygraph. The compounds were
administered into the right femoral vein.
Number of animals: 2 to 5 per dose.

[2] = test system: alpha- or beta-sympatholytic, ganglion-blocking or adrenergic neuron-blocking action; assay: Sympatholytic, ganglion-blocking and adrenergic neuron-blocking action; details: in vivo
Protocol: (§1) It is characteristic of one of the compounds of the present invention and having a hypotensive action that when administered in intravenous doses of 0.1 to 0.5 mg/kg to cats and dogs in pentothal anaesthesia it provokes a permanent decrease of 20 to 60 mmHg in blood pressure (Table 3). […] It might therefore be assumed that the hypotensive effect of the compound according to the invention is the result of its inhibiting effect on the sympathetic cerebral centres. These properties are the most characteristic of the dihydro-lysergic-acid-(3'-/pyrrolid-2"-on-1"-yl/-propyl)-amide bimaleate (Example 1).

[3] = test system: catecholamine content of the organs; assay: Catecholamine content of the organs; details: in vivo
[4] = test system: acute hypertension produced by the infusion of angiotensin; assay: Inhibition of acute hypertension produced by infusion of angiotensin; details: in vivo
[5] = test system: hypertension produced by stimulation of the baroreceptors and the central vagus stump; assay: Inhibition of hypertension produced by stimulation of the baroreceptors and the central vagus stump; details: in vivo
Protocol: as §1

[6] = test system: renal circulation, cerebral blood-vessels, blood-vessels of other organs; assay: Effect on renal circulation and blood-vessels of organs; details: in vivo
Protocol: as §1

[7] = po, rat-sole oedema, peroral, serotonin creatinine sulphate 5 μg per sole in 0.1 ml
[8] = sc, rat-sole oedema, subcutane, serotonin creatinine sulphate 5 μg per sole in 0.1 ml

Row | SMILES | ED50 (serotonin oedema; [7]) [mg/kg] | ED50 (serotonin oedema; [8]) [mg/kg] | Antidepressant effect, Δt (change in body temperature compared to that of the control) (reserpine hypothermia) [°C] | IC50 (isolated rat uterus) [ng/mL] | further results
1 | CN1C[C@H](C(=O)NC2=NCCS2)C[C@@H]2c3cccc4c3c(cn4C)C[C@H]21 [Example 4, 1-Methyl-9,10-dihydrolysergic-acid-(2'-thiazolin-2'-yl)-amide bimaleate] | 0.12 | 0.022 | 4.1 | 0.05 | peroral efficacy (in words) (serotonin oedema; peroral): particularly favourable peroral efficacy; peroral efficacy relative to Deseryl (serotonin oedema; peroral, surpassing the efficacy of Deseryl): about 3.5 times; LD50 at 24 h ([1]; ip, intraperitoneally): 330 mg/kg; LD50 at 24 h ([1]; po, orally): 315 mg/kg
2 | CN1C[C@H](C(=O)NCCCN2CCCC2=O)C[C@@H]2c3cccc4c3c(cn4C)C[C@H]21 [Example 3, 1-Methyl-9,10-dihydrolysergic-acid(3'-/pyrrolid-2"-on-1"-yl/propyl)-amide bimaleate] | 1.5 | 0.3 | – | 5 | Decrease in blood pressure (blood pressure of cats; 0.5 mg/kg i.v.): -30 mmHg; Decrease in blood pressure, duration (blood pressure of cats; 0.5 mg/kg i.v.): 2.0 h
3 | C=CCOCC(O)CNC(=O)[C@@H]1C=C2c3cccc4[nH]cc(c34)C[C@H]2N(C)C1 (stereo partly shown) [Example 6, Lysergic-acid-(3'-allyloxy-2'-oxy-propyl)-amide bimaleate] | – | – | 5.4 | – | LD50 at 24 h ([1]; ip, intraperitoneally): 110 mg/kg; LD50 at 24 h ([1]; po, orally): 205 mg/kg
4 | CN1C[C@H](C(=O)Nc2nccs2)C[C@@H]2c3cccc4c3c(cn4C)C[C@H]21 [Example 9, 1-Methyl-9,10-dihydrolysergic-acid-(thiazol-2'-yl)-amide bimaleate] | 1 | 0.03 | 4.7 | 500 | Decrease in blood pressure (blood pressure of cats; 1.0 mg/kg i.v.): -20 mmHg; Decrease in blood pressure, duration (blood pressure of cats; 1.0 mg/kg i.v.): 1.5 h
5 | Cc1ccc(NC(=O)[C@@H]2C=C3c4cccc5[nH]cc(c45)C[C@H]3N(C)C2)c(F)c1 [Example 12, Lysergic-acid-(2'-fluoro-4'-methyl-phenyl)-amide bimaleate] | – | – | 6.9 | – | LD50 at 24 h ([1]; ip, intraperitoneally): 30 mg/kg
6 | CN1C[C@H](C(=O)N[C@]2(C)O[C@@]3(O)[C@@H]4CCCN4C(=O)[C@H](Cc4ccccc4)N3C2=O)C[C@@H]2c3cccc4[nH]cc(c34)C[C@H]21 [Dihydroergotamine, reference compound] | – | – | – | – | Decrease in blood pressure (blood pressure of cats; 0.2 mg/kg i.v.): -25 mmHg; Decrease in blood pressure, duration (blood pressure of cats; 0.2 mg/kg i.v.): 0.5 h
7 | CSc1cccc(NC(=O)[C@@H]2C=C3c4cccc5[nH]cc(c45)C[C@H]3N(C)C2)c1 [Example 13, Lysergic-acid-(3'-methyl-mercapto)-anilide bimaleate] | – | – | 7.0 | – | –
8 | CN1C[C@H](C(=O)Nc2ccnn2-c2ccccc2)C=C2c3cccc4[nH]cc(c34)C[C@H]21 [Example 11, Lysergic-acid-(1'-phenyl-pyrazol-5'-yl)-amide bimaleate] | – | – | 2.9 | – | –
9 | Cc1cc(O)ccc1NC(=O)[C@@H]1C[C@@H]2c3cccc4c3c(cn4C)C[C@H]2N(C)C1 [Example 14, 1-Methyl-9,10-dihydrolysergic-acid-(4'-m-cresyl)-amide bimaleate] | 3 | 0.3 | 3.4 | 0.5 | –
10 | CN1C[C@H](C(=O)NC2=NCCS2)C[C@@H]2c3cccc4[nH]cc(c34)C[C@H]21 [Example 5, 9,10-Dihydrolysergic-acid-(thiazolin-2'-yl)-amide bimaleate] | 3 | 0.3 | 3.6 | 500 | –
11 | CN1C[C@H](C(=O)NCCCN2CCCC2=O)C=C2c3cccc4[nH]cc(c34)C[C@H]21 [Example 2, Lysergic-acid-(3'-/pyrrolid-2"-on-1"-yl/-propyl)-amide bimaleate] | – | – | 3.5 | – | Decrease in blood pressure (blood pressure of cats; 0.5 mg/kg i.v.): -50 mmHg; Decrease in blood pressure, duration (blood pressure of cats; 0.5 mg/kg i.v.): 1.5 h
12 | CN1C[C@H](C(=O)NCCCN2CCCC2=O)C[C@@H]2c3cccc4[nH]cc(c34)C[C@H]21 [Example 1, 9,10-Dihydrolysergic-acid-(3'-/pyrrolid-2"-on-1"-yl/-propyl)-amide bimaleate] | – | – | – | – | alpha- or beta-sympatholytic, ganglion-blocking or adrenergic neuron-blocking action [2]: no alpha- or beta-sympatholytic, ganglion-blocking or adrenergic neuron-blocking action; catecholamine content of the organs [3]: does not alter the catecholamine content of the organs; inhibition of acute hypertension produced by infusion of angiotensin [4]: inhibits acute hypertension produced by the infusion of angiotensin; inhibition of hypertension produced by stimulation of the baroreceptors and the central vagus stump [5]: inhibits hypertension produced by the stimulation of the baroreceptors and the central vagus stump; effect on cerebral blood-vessels and blood-vessels of other organs [6]: does not cause a constriction of the cerebral blood-vessels or a substantial change in the blood-vessels of other organs; renal circulation [6]: tends to improve renal circulation
13 | CN1C[C@H](C(=O)Nc2cccc3ncccc23)C=C2c3cccc4[nH]cc(c34)C[C@H]21 [Example 10, Lysergic-acid-(quinolin-5-yl)-amide bimaleate] | – | – | 3.9 | – | –
14 | CC[C@@H](CO)NC(=O)[C@@H]1C=C2c3cccc4c3c(cn4C)C[C@H]2N(C)C1 (racemic) [Deseryl, N-[1-(hydroxymethyl)propyl]-1-methyl-d-/+/-lysergamide, reference compound] | 0.64 | – | – | – | Serotonin oedema blocking effect ED50 (serotonin oedema; rat-sole oedema, subcutane, serotonin creatinine sulphate 5 μg per sole in 0.1 ml): 0/026
15 | CN1C[C@H](C(=O)Nc2nccs2)C=C2c3cccc4[nH]cc(c34)C[C@H]21 [Example 7, Lysergic-acid-(thiazol-2'-yl)-amide bimaleate] | – | – | 8.0 | – | –
